In test [1] the target is T1, thymidylate synthase (TS) (Mus musculus, UniProt P07607).
T1 construct: A crude fraction of TS was prepared from Meth A fibrosarcoma (Meth A) cells subcultured in vitro; endogenous in cells; host or cells: Meth A fibrosarcoma cells (100,000 x g supernatant of ultrasonicated cells)
The test is described as follows: Assay of TS inhibitory activity. It counts as biochemical. Particulars: crude TS fraction from Meth A cells; [H³]dUMP, 37°C, 1 hour; read-out: TS inhibitory activity IC₅₀. The procedure:
Assay of TS inhibitory activity
A crude fraction of TS was prepared from Meth A fibrosarcoma (Meth A) cells subcultured in vitro. For cell culture, Eagle's minimum essential medium (MEM, Nissui Pharmaceutical) containing 10% fetal bovine serum was used. Cells in the logarithmic growth phase were harvested, washed twice with phosphate buffered saline, suspended in 0.2 M sucrose and 0.01 M Tris-HCl buffer (pH 7.5), ultrasonicated, and centrifuged at 100,000 x g to obtain a supernatant. The protein concentration was determined using a protein dye reagent (Bio-Rad) with bovine γ-globulin as standard protein. Samples with a protein concentration of 100 mg/ml were prepared.
The enzymatic reaction was conducted as follows, using the method described by D. Roberts in Biochemistry 5, 3546 (1966), partially modified. The reaction mixture consisted of 0.058% formaldehyde, 6.78 mM sodium fluoride, 0.2 mM 2-mercaptoethanol, 6.24 mg/ml bovine serum albumin, 80 µM […] (dUMP), 80 µM tetrahydrofolic acid, 2 mg/ml crude TS fraction, and 0.173 M Tris-HCl buffer (pH 7.5). To this mixture was added a varying concentration of each Example compound. To 50 µl of each final mixture was added 540 KBq [H³]dUMP and the resultant mixture was incubated in a 96-well plate at 37°C for 1 hour. After completion of the incubation, 26.65% trichloroacetic acid and 3.33 mg/ml dUMP were added to stop the reaction and 220 µl of 11.4 mg/ml activated charcoal was added. The whole volume was centrifuged and the radioactivity in 100 µl of the supernatant was determined by the liquid scintillation method. Thus, the concentration required to cause 50% inhibition of TS activity (IC₅₀ value) was obtained.

In test [2] the test system is Meth A fibrosarcoma (Meth A) cells. Description: Assay of antiproliferative activity against Meth A fibrosarcoma (Meth A) cells. It is filed as cell-based. As to conditions: Mus musculus, 72 hours culture at 37°C and 5% CO₂, cell count with Coulter counter, mean of 3 wells, read-out: Meth A cell growth inhibitory activity IC₅₀. How it is done: Assay of antiproliferative activity against Meth A fibrosarcoma (Meth A) cells
Meth A cells (2 x 10⁴ cells/ml) prepared in the routine manner were seeded, 2.0 ml per well, in a 12-well plate and subjected to stationary culture at 37°C and 5% CO₂. Each Example compound dissolved at an appropriate concentration was serially diluted 1:2 to 1:10 with MEM (Nissui Pharmaceutical) and added in the medium and again the cells were subjected to stationary culture for 72 hours at 37°C and 5% CO₂. Then, the total cell count at each concentration was determined with a Coulter counter (Coulter Electronics, FL) and the mean value of 3 wells was expressed as cell count per milliliter. The concentration of each compound required to reduce the cell count of the untreated control group to 50% was regarded as the IC₅₀ value of the compound.

Each structure is given as a SMILES string.

T1 sequence (P07607 whole entry): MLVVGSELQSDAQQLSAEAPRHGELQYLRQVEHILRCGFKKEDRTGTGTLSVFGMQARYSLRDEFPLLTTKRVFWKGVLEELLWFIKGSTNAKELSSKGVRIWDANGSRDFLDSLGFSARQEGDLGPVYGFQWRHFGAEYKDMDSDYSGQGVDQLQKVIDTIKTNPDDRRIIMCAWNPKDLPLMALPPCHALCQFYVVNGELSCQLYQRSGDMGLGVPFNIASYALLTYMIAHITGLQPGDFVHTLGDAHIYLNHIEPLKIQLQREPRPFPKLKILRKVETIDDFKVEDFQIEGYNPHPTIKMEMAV

For the molecule `Cn1cc(Cc2ccc(C(=O)N[C@@H](CCC(=O)O)C(=O)O)cc2)c2c(O)nc(N)nc21` [Example 2, N-[4-(2-amino-4-hydroxy-7-methylpyrrolo-[2,3-d]pyrimidin-5-yl)methylbenzoyl]-L-glutamic acid], the IC50 in test [1] is 860 nM. For `Nc1nc(O)c2c(Cc3ccc(C(=O)N[C@@H](CCC(=O)O)C(=O)O)cc3)c[nH]c2n1` [Example 4, N-[4-(2-amino-4-hydroxy-7H-pyrrolo[2,3-d]pyrimidin-5-yl)methylbenzoyl]-L-glutamic acid], the IC50 in test [2] was 76 nM. On to `Nc1nc2[nH]cc(Cc3ccc(C(=O)N[C@@H](CCC(=O)O)C(=O)O)s3)c2c(=O)[nH]1` [Example 6, N-[5-(2-amino-4-hydroxy-7H-pyrrolo[2,3-d]pyrimidin-5-yl)methyl-2-thenoyl]-L-glutamic acid], for which the IC50 was 83 nM in test [1] and 63 nM in test [2].

Consider `Nc1nc(O)c2c(Cc3ccc(C(=O)N[C@@H](CCC(=O)O)C(=O)O)cc3F)c[nH]c2n1` [Example 8, N-[4-(2-amino-4-hydroxy-7H-pyrrolo[2,3-d]pyrimidin-5-yl)methyl-3-fluorobenzoyl]-L-glutamic acid], for which the IC50 in test [1] amounted to 490 nM; in test [2] it was 110 nM. Consider `CC(c1ccc(C(=O)N[C@@H](CCC(=O)O)C(=O)O)cc1)c1c[nH]c2nc(N)nc(O)c12` (stereo partly drawn) [Example 10, N-[4-[1-(2-amino-4-hydroxy-7H-pyrrolo[2,3-d]pyrimidin-5-yl)ethyl]benzoyl]-L-glutamic acid], for which the IC50 turned out to be 39 nM in test [1] and 66 nM in test [2]. Regarding `CCC(c1ccc(C(=O)N[C@@H](CCC(=O)O)C(=O)O)cc1)c1c[nH]c2nc(N)nc(O)c12` (stereo partly drawn) [Example 12, N-[4-[1-(2-amino-4-hydroxy-7H-pyrrolo[2,3-d]pyrimidin-5-yl)propyl]benzoyl]-L-glutamic acid], in test [2], the IC50 worked out at 39 nM.

Turning to `C=CC(c1ccc(C(=O)N[C@@H](CCC(=O)O)C(=O)O)cc1)c1c[nH]c2nc(N)nc(O)c12` (stereo partly drawn) [Example 14, N-[4-[1-(2-amino-4-hydroxy-7H-pyrrolo[2,3-d]pyrimidin-5-yl)-2-propenyl]benzoyl]-L-glutamic acid], the IC50 amounted to 37 nM in test [1] and 91 nM in test [2]. The like results for `Nc1nc(O)c2c(C(C[N+](=O)[O-])c3ccc(C(=O)N[C@@H](CCC(=O)O)C(=O)O)cc3)c[nH]c2n1` (stereo partly drawn) [Example 16, N-[4-[1-(2-amino-4-hydroxy-7H-pyrrolo[2,3-d]pyrimidin-5-yl)-2-nitroethyl]benzoyl]-L-glutamic acid] were, in that order, 590 nM and 93 nM. `NCC(c1ccc(C(=O)N[C@@H](CCC(=O)O)C(=O)O)cc1)c1c[nH]c2nc(N)nc(O)c12` (stereo partly drawn) [Example 18, N-[4-[1-(2-amino-4-hydroxy-7H-pyrrolo[2,3-d]pyrimidin-5-yl)-2-aminoethyl]benzoyl]-L-glutamic acid]: the IC50 in test [2] stood at 810 nM.

These data come from patent EP0549291A1, “Thymidylate synthase inhibitors” (TAKEDA CHEMICAL INDUSTRIES, LTD., priority 1991, dated 1993).
